Data as given in patent US9364496B2 (ONCOGENEX TECHNOLOGIES INC., priority 2013, dated 2016).
Entries after “also recorded” stand apart in the source; their conditions may differ. Where two headings read alike, the source gives them in different places. Oligonucleotides are written 5' to 3', each unit as a sugar letter and its base; * is a phosphorothioate linkage, no mark a phosphodiester; rarer units and linkages stand in square brackets, end groups in braces. Plain capitals give the bases only. e = 2'-O-(2-methoxyethyl) (MOE); [5mC] = 5-methylcytosine; d = 2'-deoxy (DNA)

Experiments:
[1] = in vivo
[2] = human, in vivo
[3] = in vivo; remark: listed apart in the source
clusterin = conditions: cited from earlier work

Custirsen: anti-clusterin antisense oligonucleotide CAGCAGCAGAGTCTTCATCAT, phosphorothioate backbone, 2′-O-methoxyethyl at nucleotides 1-4 and 18-21, 5-methylcytosines at 1, 4, 19 (antisense e[5mC]*eA*eG*e[5mC]*dA*dG*dC*dA*dG*dA*dG*dT*dC*dT*dT*dC*dA*eT*e[5mC]*eA*eT; listed as Homo sapiens)
incidence of the most common adverse events (fatigue, chills, nausea, pyrexia, etc.) [1]: more than 20 % of the patients | occurrence of grade 3/4 renal toxicity [1]: rare | INR values [2]: ≤ 1.5 | grade 1 increase in PTT, number [2]: 1 | hepatic transaminase elevations [2]: Grade 1 and 2 | incidence of elevated liver function tests (ELFTs) [2]: higher incidence | INR values [3]: ≤ 1.5 | reports of grade 2 toxicity for PTT [3]: 2 reports | expression of clusterin (clusterin): potently regulated the expression of clusterin; also recorded: potently reduces the expression of clusterin | sensitization of cancer cells to chemotherapy (clusterin; human prostate, breast, ovarian, lung, renal, bladder, and melanoma cells): sensitizes
